# In ChEMBL document CHEMBL3885861, “Open TG-GATES”:
# Species: Rattus norvegicus
# Experiment: Open TG-GATES - Regimen: Single
# Assay type: toxicity, organism-based, Sprague-Dawley
# Design: regimen Single, gender Male, age 6 weeks
# Conditions: in vivo, po, 15 mg/kg, route gavage, dose level Middle; for APTT / Bas / Eos / Fbg / Hb / Ht / Lym / MCH / MCHC / MCV / Mono / Neu / PT / Plat / RBC / Ret / WBC: tissue Blood; for LIVER: tissue Liver; for A/G / ALP / ALT / AST / BUN / CRE / Ca / Cl / DBIL / GLC / IP / K / LDH / Na / PL / RALB / TBIL / TC / TG / TP / gamma-GTP: tissue Plasma
compound,measurement,setting,value
C=C(C)[C@H]1Cc2c(ccc3c2O[C@@H]2COc4cc(OC)c(OC)cc4[C@@H]2C3=O)O1 [ROTENONE],TERMINAL_BW,3 h,196.9 g
same,APTT,3 h,16.9 s
same,Bas,3 h,0%
same,Eos,3 h,0.8%
same,Fbg,3 h,214 mg/dL
same,Hb,3 h,13.1 g/dL
same,Ht,3 h,40.1%
same,Lym,3 h,63.8%
same,MCH,3 h,20.7 pg
same,MCHC,3 h,32.6%
same,MCV,3 h,63.4 fL
same,Mono,3 h,13.6%
same,Neu,3 h,22%
same,PT,3 h,12.4 s
same,Plat,3 h,122.6 x10_4/uL
same,RBC,3 h,634 x10_4/ul
same,Ret,3 h,8.9%
same,WBC,3 h,89.2 x10_2/uL
same,LIVER,3 h,8.7 g
same,A/G,3 h,2.4
same,ALP,3 h,1502.2 IU/L
same,ALT,3 h,37.8 IU/L
same,AST,3 h,71.4 IU/L
same,BUN,3 h,14.2 mg/dL
same,CRE,3 h,0.4 mg/dL
same,Ca,3 h,10.9 mg/dL
same,Cl,3 h,104.2 meq/L
same,DBIL,3 h,0.01 mg/dL
same,GLC,3 h,191.6 mg/dL
same,IP,3 h,8.8 mg/dL
same,K,3 h,4 meq/L
same,LDH,3 h,106.6 IU/L
same,Na,3 h,141 meq/L
same,PL,3 h,126.8 mg/dL
same,RALB,3 h,3.9 g/dL
same,TBIL,3 h,0.038 mg/dL
same,TC,3 h,82 mg/dL
same,TG,3 h,37.4 mg/dL
same,TP,3 h,5.5 g/dL
same,gamma-GTP,3 h,0.8 IU/L
same,TERMINAL_BW,6 h,198.2 g
same,APTT,6 h,16.4 s
same,Bas,6 h,0%
same,Eos,6 h,0.8%
same,Fbg,6 h,209.6 mg/dL
same,Hb,6 h,13.2 g/dL
same,Ht,6 h,40.1%
same,Lym,6 h,75.8%
same,MCH,6 h,21 pg
same,MCHC,6 h,32.9%
same,MCV,6 h,63.9 fL
same,Mono,6 h,5.4%
same,Neu,6 h,18.2%
same,PT,6 h,12.4 s
same,Plat,6 h,127.4 x10_4/uL
same,RBC,6 h,628.4 x10_4/ul
same,Ret,6 h,8.2%
same,WBC,6 h,100.4 x10_2/uL
same,LIVER,6 h,8.7 g
same,A/G,6 h,2.3
same,ALP,6 h,1188.8 IU/L
same,ALT,6 h,33.6 IU/L
same,AST,6 h,68 IU/L
same,BUN,6 h,11.8 mg/dL
same,CRE,6 h,0.4 mg/dL
same,Ca,6 h,11 mg/dL
same,Cl,6 h,103.8 meq/L
same,DBIL,6 h,0.01 mg/dL
same,GLC,6 h,194 mg/dL
same,IP,6 h,9.7 mg/dL
same,K,6 h,4 meq/L
same,LDH,6 h,84.2 IU/L
same,Na,6 h,140.6 meq/L
same,PL,6 h,139.2 mg/dL
same,RALB,6 h,3.7 g/dL
same,TBIL,6 h,0.044 mg/dL
same,TC,6 h,79.8 mg/dL
same,TG,6 h,74.6 mg/dL
same,TP,6 h,5.4 g/dL
same,gamma-GTP,6 h,0.4 IU/L
same,TERMINAL_BW,9 h,198.7 g
same,APTT,9 h,16.4 s
same,Bas,9 h,0%
same,Eos,9 h,0.2%
same,Fbg,9 h,217 mg/dL
same,Hb,9 h,12.7 g/dL
same,Ht,9 h,38.7%
same,Lym,9 h,79.2%
same,MCH,9 h,21 pg
same,MCHC,9 h,32.9%
same,MCV,9 h,63.7 fL
same,Mono,9 h,6.8%
same,Neu,9 h,13.6%
same,PT,9 h,12.7 s
same,Plat,9 h,133.8 x10_4/uL
same,RBC,9 h,607.8 x10_4/ul
same,Ret,9 h,8.8%
same,WBC,9 h,91.4 x10_2/uL
same,LIVER,9 h,8.3 g
same,A/G,9 h,2.4
same,ALP,9 h,1265 IU/L
same,ALT,9 h,29.8 IU/L
same,AST,9 h,65.6 IU/L
same,BUN,9 h,10.4 mg/dL
same,CRE,9 h,0.4 mg/dL
same,Ca,9 h,11.4 mg/dL
same,Cl,9 h,104.2 meq/L
same,DBIL,9 h,0.01 mg/dL
same,GLC,9 h,186 mg/dL
same,IP,9 h,10 mg/dL
same,K,9 h,4.1 meq/L
same,LDH,9 h,103.8 IU/L
same,Na,9 h,139.8 meq/L
same,PL,9 h,132.2 mg/dL
same,RALB,9 h,3.7 g/dL
same,TBIL,9 h,0.044 mg/dL
same,TC,9 h,79.2 mg/dL
same,TG,9 h,40 mg/dL
same,TP,9 h,5.2 g/dL
same,gamma-GTP,9 h,1 IU/L
same,TERMINAL_BW,24 h,213.8 g
same,APTT,24 h,15.5 s
same,Bas,24 h,0%
same,Eos,24 h,0.8%
same,Fbg,24 h,216 mg/dL
same,Hb,24 h,12.8 g/dL
same,Ht,24 h,38.8%
same,Lym,24 h,78.6%
same,MCH,24 h,21.5 pg
same,MCHC,24 h,32.9%
same,MCV,24 h,65.3 fL
same,Mono,24 h,5.6%
same,Neu,24 h,15%
same,PT,24 h,11.8 s
same,Plat,24 h,113 x10_4/uL
same,RBC,24 h,595 x10_4/ul
same,Ret,24 h,8.1%
same,WBC,24 h,100 x10_2/uL
same,LIVER,24 h,11 g
same,A/G,24 h,2.6
same,ALP,24 h,1529.4 IU/L
same,ALT,24 h,36 IU/L
same,AST,24 h,67 IU/L
same,BUN,24 h,17.2 mg/dL
same,CRE,24 h,0.4 mg/dL
same,Ca,24 h,11.6 mg/dL
same,Cl,24 h,104.2 meq/L
same,DBIL,24 h,0.012 mg/dL
same,GLC,24 h,187 mg/dL
same,IP,24 h,7.4 mg/dL
same,K,24 h,4.4 meq/L
same,LDH,24 h,112.8 IU/L
same,Na,24 h,140.4 meq/L
same,PL,24 h,168.4 mg/dL
same,RALB,24 h,4 g/dL
same,TBIL,24 h,0.032 mg/dL
same,TC,24 h,88.8 mg/dL
same,TG,24 h,152 mg/dL
same,TP,24 h,5.6 g/dL
same,gamma-GTP,24 h,0.4 IU/L
